Reference: patent publication US4748232A, “Peptide production and use thereof” (Suntory Limited, priority 1983, dated 1988)

Key:
Male rats = test: Diuretic and natriuretic action in anesthetized rats (urine collected via bladder cannula); format: in vivo, rat; settings: 1.21 μ mole, group V
Procedure: To keep the respiratory tract open, a tracheal cannula (PE-240 Clay-Adams) was inserted into the trachea. An arterial cannula (PE-50) was inserted into a femoral artery for measurement of the blood pressure, and a venous cannula was inserted into a femoral vein for the administration of Ringer's solution. 1.2 ml of Ringer's solution was injected for ten minutes, and subsequently, was constantly infused at a flow rate of 1.2 ml/hour.
A bladder cannula made of silastic tube with an inner diameter of 0.02 inches and an outer diameter of 0.037 inches was inserted into the bladder, and via the cannula, a urine sample was collected into a test tube. The collection of urine was carried out for 30 minutes before administration of the test compound, and every five minutes after the administration.
The control group (group I) was administered 50 μl of physiological saline containing only bacitracin.
Groups I to IV each consisted of three animals, and group V consisted of four animals.

Solubility in solvents = format: physicochemical
[1] = Immunogenicity and toxicity on administration; format: in vivo

Row | SMILES | Urine volume A (Male rats; A: sample collected 5 minutes after administration) [µL/min] | Urine volume B (Male rats; B: sample collected 30 minutes before administration) [µL/min] | Solubility in solvents (Solubility in solvents; ethyl acetate, butyl acetate, ethyl ether, hexane, petroleum ether, benzene, and chloroform) | Solubility in solvents (Solubility in solvents; methanol, and acetic acid) | Solubility in solvents (Solubility in solvents; water) | toxicity ([1]; gradually hydrolized in a body providing the L-amino acids) | anaphylaxis shock ([1]; repeated administration) | production of antibodies ([1]; repeated administration)
1 | NS(=O)(=O)c1cc(C(=O)O)c(NCc2ccco2)cc1Cl [Furosemide, furosemide] | 167 ± 28 | 8.6 ± 1.9 |  |  |  |  |  | 
2 | CC[C@H](C)[C@@H]1NC(=O)[C@H](CCCNC(=N)N)NC(=O)[C@H](CC(=O)O)NC(=O)[C@H](CCSC)NC(=O)[C@H](CCCNC(=N)N)NC(=O)CNC(=O)CNC(=O)[C@H](Cc2ccccc2)NC(=O)[C@@H](NC(=O)[C@H](CO)NC(=O)[C@H](CO)NC(=O)[C@H](CCCNC(=N)N)NC(=O)[C@H](CCCNC(=N)N)NC(=O)[C@H](CC(C)C)NC(=O)[C@@H](N)CO)CSSC[C@@H](C(=O)N[C@@H](CC(N)=O)C(=O)N[C@@H](CO)C(=O)N[C@@H](Cc2ccccc2)C(=O)N[C@@H](CCCNC(=N)N)C(=O)N[C@@H](Cc2ccc(O)cc2)C(=O)O)NC(=O)CNC(=O)[C@H](CC(C)C)NC(=O)CNC(=O)[C@H](CO)NC(=O)[C@H](CCC(N)=O)NC(=O)[C@H](C)NC(=O)CNC1=O [α-hANP, α-human atrial natriuretic polypeptide] |  |  | insoluble | partially | soluble | little toxicity | does not cause anaphylaxis shock | does not stimulate production of antibodies
